Measurements from patent US20250127933A1, “Method of verifying effectiveness and stability of linker in Drug Delivery system and Structure therefor” (INDUSTRY-ACADEMIC COOPERATION FOUNDATION OF SUNCHON …, priority 2023, published 2025).

Key:
[1] = tested on: Leucine aminopeptidase (LAP); assay: Enzymatic kinetic study of LAP reaction of activatable fluorescent probes; format: biochemical, porcine; details: for Fluorophore released in LAP reaction (% yield) / Fluorophore released in LAP reaction (concentration) / kinetics of LAP reaction (time-dependent fluorescence emission): 1 μM probe, 10 μg/mL LAP, PBS pH 7.4, 37° C., 80 min; for Fluorophore released in LAP reaction (concentration): calculated from fluorophore calibration curves; for LAP response / fluorophore release (in words): LAP reaction, enzymatic study
Protocol: All spectroscopic readings were measured with BioTek Synergy™ H1 spectrophotometer, using 96 well microplate. A parent stock solution of probes was dissolved in DMSO to obtain 10 mM. Leucine aminopeptidase was dissolved in deionized water to obtain 1 mg/mL. All spectra measurements were carried out in PBS buffer solution (PBS buffer, 10 mM, pH 7.4, 37° C. The final volume in 96 well microplate was adjusted to 200 μL. RPMI 1640 was obtained from Thermo Scientific (Waltham, MA, USA). Bestatin hydrochloride (LAP inhibitor), DMSO and 2-mercaptoethanol were purchased from Sigma Aldrich (St. Louis, Mo, USA).
The kinetic study for LAP reaction was performed by incubation of 2 μg of LAP ([…]) with 1 μM probe in PBS buffer (10 mM, pH 7.4). The plate was incubated at 37° C. for 80 min with continuous shaking, and the emission spectra were recorded at the corresponding wavelength over time. A solution of LAP (2 μg/200 μL) was pretreated with bestatin (0, 1, 10, 50 and 100 μM) in PBS (10 mM, pH 7.4) at 37° C. for 30 min, and then 1 μM of probe was added. The mixture was incubated at 37° C., and the fluorescence was recorded on Synergy™ H1 using a 96-well microplate.
All reagents and solvents were obtained from commercial sources Sigma-Aldrich Chemical Co., Combi-Block, Tokyo Chemical Industries, Daejung Chemicals, and Alfa Aesar and used without purification. Anhydrous solvents were purchased from Sigma-Aldrich and used under dry nitrogen atmosphere. Ultrapure water was obtained from a water ultra-purification system. Completion of reaction was confirmed by thin layer chromatography (TLC) on Kiesegel 60F254 from Merck and all synthesized compounds were purified by flash column chromatography using ZEOprep 60 (40-63) […] silica gel from ZEOCHEM. ^1H and ^13C NMR spectra were measured on JEOL JNMECZ400s/L1 (400 MHZ) and CDCl3 or DMSO-d6 was used as the NMR solvents. The chemical shifts were quoted in parts per million (ppm) and the coupling constant (J) were reported in hertz unit (Hz). Chemical shifts (in ppm) were referenced to tetramethylsilane (δ=0 ppm) in CDCl3 as an internal standard. ^13C NMR spectra were reported in ppm referenced to the center line of the triplet at 77.0 ppm for CDCl3 or 39.5 ppm for DMSO-d6. All in vitro enzyme assays were performed by taking the absorbance and emission on Synergy™ H1 microplate reader from BioTek. Leucine aminopeptidase from porcine kidney and other enzymes were purchased from Sigma-Aldrich.

[2] = pH-dependent stability test; format: physicochemical; details: 1 μM probe, pH 2 to 12, 25° C.
Protocol: Thermal stability was evaluated by the incubation of 1 μM of the probe in PBS buffer (pH 7.4) at different temperatures ranging from 25 to 45° C. for 20 min and reading fluorescence at each temperature. The pH stability test was performed by the incubation with 1 μM probe in different pH buffers (2 to 13) at 25° C. and recording fluorescence at each pH.

[3] = tested on: Leucine aminopeptidase (LAP); assay: Enzymatic kinetic study of LAP reaction of activatable fluorescent probes; format: biochemical, porcine; details: 1 μM probe; LAP 1, 5, 10, 20, 50, 100 μg/mL; PBS pH 7.4, 80 min, 37° C.

Compound | Fluorophore released in LAP reaction (% yield) ([1]; Rhoda-P2) | Fluorophore released in LAP reaction (concentration) [1] | Fluorophore released in LAP reaction (% yield) ([1]; listed as Rhoda-P2) | pH-dependent stability (fluorescence of fluorophore released by degradation) [2] | Fluorophore released in LAP reaction (% yield) [1] | kinetics of LAP reaction (time-dependent fluorescence emission) [1] | LAP response / fluorophore release (in words) [1] | LAP response at various concentrations of LAP [3]
CCN(CC)c1ccc2c(c1)Oc1cc(NC(=O)OCc3ccc(NC(=O)[C@@H](N)CC(C)C)cc3)ccc1C21OC(=O)c2ccccc21 (stereo partly drawn) [Probe 3, 4-((S)-2-Amino-4-methylpentanamido)benzyl (3′-(diethylamino)-3-oxo-3H-spiro[isobenzofuran-1,9′-xanthen]-6′-yl)carbamate] | 98.7% | ~0.987 µM | 74.7% | no change in fluorescence emission according to the change in pH |  |  |  | 
COc1ccc2c(c1)Oc1cc(NC(=O)[C@@H](N)CC(C)C)ccc1C21OCc2ccccc21 (stereo partly drawn) [Probe 8, (2S)-2-Amino-N-(3′-methoxy-3H-spiro[isobenzofuran-1,9′-xanthen]-6′-yl)-4-methylpentanamide] |  | ~0.939 µM |  |  | 93.9% | faster kinetics than those of the corresponding P2 and P3 probes |  | 
COc1ccc2c(c1)Oc1cc(OCc3ccc(NC(=O)[C@@H](N)CC(C)C)cc3)ccc1C21OC(=O)c2ccccc21 (stereo partly drawn) [Probe 6, (2S)-2-Amino-N-(4-(((3′-methoxy-3-oxo-3H-spiro[isobenzofuran-1,9′-xanthen]-6′-yl)oxy)methyl)phenyl)-4-methylpentanamide] |  | ~0.373 µM |  |  | 37.3% | notably slower kinetics | lower responses | nearly maximal responses at 10 μg/mL of LAP
CCN(CC)c1ccc2c(c1)Oc1cc(OCc3ccc(NC(=O)[C@@H](N)CC(C)C)cc3)ccc1C21OC(=O)c2ccccc21 (stereo partly drawn) [Probe 5, (2S)-2-Amino-N-(4-(((3′-(diethylamino)-3-oxo-3H-spiro[isobenzofuran-1,9′-xanthen]-6′-yl)oxy)methyl)phenyl)-4-methylpentanamide] |  | ~0.191 µM |  |  | 19.1% | notably slower kinetics | lower responses | 
CCN(CC)c1ccc2c(c1)Oc1cc(OCc3ccc(NC(=O)[C@@H](N)CC(C)C)cc3)ccc1C21OCc2ccccc21 (stereo partly drawn) [Probe 11, (2S)-2-Amino-N-(4-(((3′-(diethylamino)-3H-spiro[isobenzofuran-1,9′-xanthen]-6′-yl)oxy)methyl)phenyl)-4-methylpentanamide] |  | ~0.298 µM |  |  | 29.8% | notably slower kinetics | lower responses | 
CCN(CC)c1ccc2c(c1)Oc1cc(NC(=O)OCc3ccc(NC(=O)[C@@H](N)CC(C)C)cc3)ccc1C21OCc2ccccc21 (stereo partly drawn) [Probe 9, 4-((S)-2-Amino-4-methylpentanamido)benzyl (3′-(diethylamino)-3H-spiro[isobenzofuran-1,9′-xanthen]-6′-yl)carbamate] |  | ~0.328 µM |  |  | 32.8% |  |  | 
CCN(CC)c1ccc2c(c1)Oc1cc(NC(=O)[C@@H](N)CC(C)C)ccc1C21OCc2ccccc21 (stereo partly drawn) [Probe 7, (2S)-2-Amino-N-(3′-(diethylamino)-3H-spiro[isobenzofuran-1,9′-xanthen]-6′-yl)-4-methylpentanamide] |  | ~0.741 µM |  |  | 74.1% |  |  | 
CCN(CC)c1ccc2c(c1)Oc1cc(NC(=O)[C@@H](N)CC(C)C)ccc1C21OC(=O)c2ccccc21 (stereo partly drawn) [Probe 1, (2S)-2-Amino-N-(3′-(diethylamino)-3-oxo-3H-spiro[isobenzofuran-1,9′-xanthen]-6′-yl)-4-methylpentanamide] |  | ~0.667 µM |  | increased fluorescence emission in the pH range of 7-9 | 66.7% |  |  | 
COc1ccc2c(c1)Oc1cc(OCc3ccc(NC(=O)[C@@H](N)CC(C)C)cc3)ccc1C21OCc2ccccc21 (stereo partly drawn) [Probe 12, (2S)-2-Amino-N-(4-(((3′-methoxy-3H-spiro[isobenzofuran-1,9′-xanthen]-6′-yl)oxy)methyl)phenyl)-4-methylpentanamide] |  | ~0.736 µM |  |  | 73.6% |  |  | 
COc1ccc2c(c1)Oc1cc(NC(=O)OCc3ccc(NC(=O)[C@@H](N)CC(C)C)cc3)ccc1C21OCc2ccccc21 (stereo partly drawn) [Probe 10, 4-((S)-2-Amino-4-methylpentanamido)benzyl (3′-methoxy-3H-spiro[isobenzofuran-1,9′-xanthen]-6′-yl)carbamate] |  | ~0.676 µM |  |  | 67.6% |  |  | 
